Results reported in patent US20100029604A1, “ANTIBACTERIAL COMBINATION AND ITS USE” (priority 2007, published 2010).
Values after ≈ are worked out from the molar mass of the structure shown. Like-named read-outs stand apart in the source and are kept apart here.

Columns and labels:
[1] = system: E. cloacae AmpC; experiment: Synergy MIC, inhibitor at 4 μg/mL (Example 4); assay type: cell-based, Enterobacter Cloacae; details: class C, inhibitor constant 4 μg/mL
Procedure: (§1) The in vitro activities of the antibiotics were determined by the broth microdilution method and agar dilution technique as recommended by CLSI guidelines. The MIC experiments were performed in duplicate in 96-well microtiter plates using MHB. Serial twofold dilutions of each antibiotic either alone or in combination with a constant amount (4 μg/mL) of a β-lactamase inhibitor were prepared in MHBII broth. A sterile pipette tip was used to mix the contents of each well (one tip was used going from the low to the high concentration in the same column). The bacterial suspension with final inoculum 10^5 CFU/mL was transferred to the test medium containing the antibacterial substances by a multipoint inoculator (Dynatech, Chantilly, Va., USA). The plates were then incubated at 35° C. for 24 h.
(§2) Following procedures identical to those described in Example 3, representative compound of Formula (I) was tested for its ability to enhance antibiotic efficacy against Class C β-lactamase positive bacterial strains that are highly resistant to β-lactam antibiotics. Class C enzymes included AmpC β-lactamases of Enterobacter Cloacae and Citrobacter freundii.

[2] = system: Escherichia coli TEM-31; experiment: MIC, characterised β-lactamase producing strain (Example 5, Tables 5-7); assay type: cell-based
Procedure: (§3) The MIC experiments were performed in duplicate in 96-well microtiter plates using CAMHB. Serial twofold dilutions of each antibiotic either alone or in combination with constant concentration ratio of a β-lactamase inhibitor (2:1) were prepared in CAMHB. The bacterial suspension with final inoculum 10^5 CFU/mL was transferred to the test medium containing the antibacterial substances. In each well of a 96-well microtiter plate was combined 50 μL of bacterial inoculum, 50 μL of antibiotic dilutions (or media for determination of the MIC of the antibiotic in the absence of test compound). Each plate included 4 wells with no bacterial inoculum (negative control) and 4 wells with no test compound and no antibiotic (positive control). The plates were incubated at 35° C. for 24 h. Purity check and colony counts on each inoculum suspension was performed to ensure that the final inoculum concentration routinely obtained closely approximates 5×10^5 CFU/mL. In addition the assay is routinely monitored by testing standard antibiotics and ensuring that MIC values are within the recommended ranges for the respective strains.
(§4) This test permits comparisons to be made between bacterial growth in the presence of antibiotic alone and bacterial growth in the presence of both an antibiotic and a novel (test) compound.

[3] = system: Escherichia coli SHV-2A; experiment: as above; assay type: cell-based
Procedure: as §3, §4

[4] = system: Escherichia coli TEM-2; experiment: as above; assay type: cell-based
Procedure: as §3, §4

[5] = system: Escherichia coli OXA-2; experiment: as above; assay type: cell-based
Procedure: as §3, §4

[6] = system: Escherichia coli OXA-5; experiment: as above; assay type: cell-based
Procedure: as §3, §4

[7] = system: C. freundii AmpC; experiment: Synergy MIC, inhibitor at 4 μg/mL (Example 4); assay type: cell-based, Citrobacter freundii; details: class C, inhibitor constant 4 μg/mL
Procedure: as §1, §2

[8] = system: Escherichia coli TEM-1; assay type: cell-based
Procedure: as §3, §4

[9] = system: E. coli SHV-5; experiment: Synergy MIC, inhibitor at 4 μg/mL (Example 4); assay type: cell-based; details: SHV-5, class A, inhibitor constant 4 μg/mL
[10] = system: Klebsiella oxytoca ATCC 51983; experiment: MIC broth microdilution (Example 2); details: ATCC51983
[11] = system: Klebsiella pneumoniae ATCC 700603; experiment: MIC broth microdilution (Example 2); details: Klebsiella pneumoniae ATCC 700603 producing SHV-18
[12] = system: Escherichia coli FOX-2; experiment: MIC, characterised β-lactamase producing strain (Example 5, Tables 5-7); assay type: cell-based
Procedure: as §3, with “Serial twofold dilutions of each antibiotic either alone or in combination with constant concentration ratio of a β-lactamase inhibitor (2:1) were prepared in CAMHB.” left out
as §4

[13] = system: Escherichia coli TEM-36; experiment: as above; assay type: cell-based
Procedure: as §3, with “Serial twofold dilutions of each antibiotic either alone or in combination with constant concentration ratio of a β-lactamase inhibitor (2:1) were prepared in CAMHB.” left out
as §4

[14] = system: Escherichia coli TEM-21; experiment: as above; assay type: cell-based
Procedure: as §3, with “Serial twofold dilutions of each antibiotic either alone or in combination with constant concentration ratio of a β-lactamase inhibitor (2:1) were prepared in CAMHB.” left out
as §4

[15] = system: Escherichia coli OXA-7; experiment: as above; assay type: cell-based
Procedure: as §3, with “Serial twofold dilutions of each antibiotic either alone or in combination with constant concentration ratio of a β-lactamase inhibitor (2:1) were prepared in CAMHB.” left out
as §4

[16] = system: Klebsiella pneumoniae TEM-10; experiment: as above; assay type: cell-based
Procedure: as §3, with “Serial twofold dilutions of each antibiotic either alone or in combination with constant concentration ratio of a β-lactamase inhibitor (2:1) were prepared in CAMHB.” left out
as §4

[17] = system: Pseudomonas aeruginosa OXA-6; experiment: as above; assay type: cell-based
Procedure: as §3, with “Serial twofold dilutions of each antibiotic either alone or in combination with constant concentration ratio of a β-lactamase inhibitor (2:1) were prepared in CAMHB.” left out
as §4

[18] = system: Escherichia coli CMY-2; experiment: as above; assay type: cell-based
Procedure: as §3, with “Serial twofold dilutions of each antibiotic either alone or in combination with constant concentration ratio of a β-lactamase inhibitor (2:1) were prepared in CAMHB.” left out
as §4

[19] = system: Escherichia coli OXA-1; experiment: as above; assay type: cell-based
Procedure: as §3, with “Serial twofold dilutions of each antibiotic either alone or in combination with constant concentration ratio of a β-lactamase inhibitor (2:1) were prepared in CAMHB.” left out
as §4

[20] = system: Escherichia coli SHV-1; experiment: as above; assay type: cell-based
Procedure: as §3, with “Serial twofold dilutions of each antibiotic either alone or in combination with constant concentration ratio of a β-lactamase inhibitor (2:1) were prepared in CAMHB.” left out
as §4

[21] = system: Escherichia coli FOX-1; experiment: as above; assay type: cell-based
Procedure: as §3, with “Serial twofold dilutions of each antibiotic either alone or in combination with constant concentration ratio of a β-lactamase inhibitor (2:1) were prepared in CAMHB.” left out
as §4

[22] = system: Klebsiella pneumoniae LAT-2; experiment: as above; assay type: cell-based
Procedure: as §3, with “Serial twofold dilutions of each antibiotic either alone or in combination with constant concentration ratio of a β-lactamase inhibitor (2:1) were prepared in CAMHB.” left out
as §4

[23] = system: Pseudomonas aeruginosa PSE-3; experiment: as above; assay type: cell-based
Procedure: as §3, with “Serial twofold dilutions of each antibiotic either alone or in combination with constant concentration ratio of a β-lactamase inhibitor (2:1) were prepared in CAMHB.” left out
as §4

[24] = system: Escherichia coli SHV-4; experiment: as above; assay type: cell-based
Procedure: as §3, with “Serial twofold dilutions of each antibiotic either alone or in combination with constant concentration ratio of a β-lactamase inhibitor (2:1) were prepared in CAMHB.” left out
as §4

[25] = system: Escherichia coli CMY-7; experiment: as above; assay type: cell-based
Procedure: as §3, with “Serial twofold dilutions of each antibiotic either alone or in combination with constant concentration ratio of a β-lactamase inhibitor (2:1) were prepared in CAMHB.” left out
as §4

[26] = Table 6, LK-157 at constant 4 μg/mL in combination
[27] = Table 7, combination at constant concentration ratio (2:1)

With `CO/N=C(\C(=O)N[C@@H]1C(=O)N2C(C(=O)[O-])=C(C[N+]3(C)CCCC3)CS[C@H]12)c1csc(N)n1` [cefepime] the MIC ([1]; first listed) was 0.8 µg/mL, the MIC ([1]; second listed) was 1.6 µg/mL and the MIC ([1]; third listed) was 1.6 µg/mL. It also gave an MIC ([2]; Escherichia coli TEM-31, functional group 2br, LK-157 in combination constant 4 μg/mL) of 0.125 µg/mL, an MIC ([3]; functional group 2be, LK-157 in combination constant 4 μg/mL) of 16 µg/mL and an MIC ([4]; Escherichia coli TEM-2, functional group 2b, LK-157 in combination constant 4 μg/mL) of 0.25 µg/mL. The MIC ([5]; Escherichia coli OXA-2, functional group 2d, LK-157 in combination constant 4 μg/mL) was 0.125 µg/mL, the MIC ([6]; Escherichia coli OXA-5, functional group 2d, LK-157 in combination constant 4 μg/mL) was 0.125 µg/mL and the MIC [7] was 0.8 µg/mL. For the same compound, the MIC ([8]; Escherichia coli TEM-1, functional group 2b, LK-157 in combination constant 4 μg/mL) was 0.125 µg/mL and the MIC [9] was 25.6 µg/mL.
In the case of `CO/N=C(\C(=O)N[C@@H]1C(=O)N2C(C(=O)O)=C(COC(C)=O)CS[C@H]12)c1csc(N)n1` [cefotaxime], the MIC ([1]; first listed) is reported as > 25.6 µg/mL, the MIC ([1]; second listed) is reported as > 25.6 µg/mL and the MIC ([1]; third listed) is reported as > 25.6 µg/mL. The MIC [10] was 2 to 8 µg/mL (≈ 4.39 to 17.6 µM), the “susceptibility of the strain to the antibiotic” value [11] was “susceptible” and the MIC ([2]; Table 6, Escherichia coli TEM-31, LK-157 at constant 4 μg/mL in combination) was 0.063 µg/mL. The MIC [3, 26] was 8 µg/mL, the MIC ([4]; Table 6, Escherichia coli TEM-2, LK-157 at constant 4 μg/mL in combination) was 0.063 µg/mL and the MIC ([5]; Table 6, Escherichia coli OXA-2, LK-157 at constant 4 μg/mL in combination) was 0.063 µg/mL. It also gave an MIC ([6]; Table 6, Escherichia coli OXA-5, LK-157 at constant 4 μg/mL in combination) of 0.25 µg/mL, an MIC [12, 26] of 64 µg/mL and an MIC [13, 26] of 0.25 µg/mL. For the same compound, the MIC [14, 26] was 32 µg/mL, the MIC [15, 26] was 0.25 µg/mL and the MIC [16, 26] was 0.5 µg/mL. It also gave an MIC [17, 26] of 16 µg/mL, an MIC [18, 26] of 32 µg/mL and an MIC [19, 26] of 0.5 µg/mL. It also gave an MIC [20, 26] of 0.063 µg/mL, an MIC [21, 26] of 2 µg/mL and an MIC [22, 26] of 16 µg/mL. It also gave an MIC [23, 26] of 16 µg/mL, an MIC [24, 26] of 16 µg/mL and an MIC [25, 26] of 32 µg/mL. The MIC [7] was > 25.6 µg/mL, the MIC ([8]; Table 6, Escherichia coli TEM-1, LK-157 at constant 4 μg/mL in combination) was 0.063 µg/mL and the MIC [9] was > 25.6 µg/mL.
With `CC(C)(O/N=C(\C(=O)N[C@@H]1C(=O)N2C(C(=O)[O-])=C(C[n+]3ccccc3)CS[C@H]12)c1csc(N)n1)C(=O)O` [ceftazidime] the MIC ([1]; first listed) was > 25.6 µg/mL, the MIC ([1]; second listed) was > 25.6 µg/mL and the MIC ([1]; third listed) was > 25.6 µg/mL. For the same compound, the MIC [10] was 32 to 64 µg/mL (≈ 58.5 to 117 µM), the “susceptibility of the strain to the antibiotic” value [11] was “resistant” and the MIC ([2]; Table 7, Escherichia coli TEM-31, combination at constant concentration ratio (2:1)) was 0.25 µg/mL. For the same compound, the MIC [3, 27] was 4 µg/mL, the MIC ([4]; Table 7, Escherichia coli TEM-2, combination at constant concentration ratio (2:1)) was 0.5 µg/mL and the MIC ([5]; Table 7, Escherichia coli OXA-2, combination at constant concentration ratio (2:1)) was 1 µg/mL. For the same compound, the MIC ([6]; Table 7, Escherichia coli OXA-5, combination at constant concentration ratio (2:1)) was 0.5 µg/mL, the MIC [12, 27] was “≧128 μg/mL” and the MIC [13, 27] was 0.5 µg/mL. For the same compound, the MIC [14, 27] was 16 µg/mL, the MIC [15, 27] was 0.5 µg/mL and the MIC [16, 27] was “≧128 μg/mL”. The MIC [17, 27] was 2 µg/mL, the MIC [18, 27] was “≧128 μg/mL” and the MIC [19, 27] was 0.25 µg/mL. The MIC [20, 27] was 0.25 µg/mL, the MIC [21, 27] was 8 µg/mL and the MIC [22, 27] was “≧128 μg/mL”. The MIC [23, 27] was 4 µg/mL, the MIC [24, 27] was “≧128 μg/mL” and the MIC [25, 27] was “≧128 μg/mL”. The MIC [7] was > 25.6 µg/mL and the MIC ([8]; Table 7, Escherichia coli TEM-1, combination at constant concentration ratio (2:1)) was 0.25 µg/mL.
